Test results: ChEMBL document CHEMBL2016435 (Bioorg Med Chem Lett, 2012)

Tests used:
[1] = target: 3',5'-cyclic-AMP phosphodiesterase 4D (Homo sapiens, UniProt Q08499); test: Inhibition of human PDE4D2 catalytic domain (86 to 413) expressed in Escherichia coli BL21 using [3H]-cAMP/[3H]-cGMP after 15 mins by liquid scintillation counting
[2] = target: 3',5'-cyclic-AMP phosphodiesterase 4B (Homo sapiens, UniProt Q07343); test: Inhibition of human PDE4B2 catalytic domain and UCR2 (92 to 521) expressed in Escherichia coli BL21 using [3H]-cAMP/[3H]-cGMP after 15 mins by liquid scintillation counting
Sequence of 3',5'-cyclic-AMP phosphodiesterase 4B (Q07343 whole entry, the tested form may be a part): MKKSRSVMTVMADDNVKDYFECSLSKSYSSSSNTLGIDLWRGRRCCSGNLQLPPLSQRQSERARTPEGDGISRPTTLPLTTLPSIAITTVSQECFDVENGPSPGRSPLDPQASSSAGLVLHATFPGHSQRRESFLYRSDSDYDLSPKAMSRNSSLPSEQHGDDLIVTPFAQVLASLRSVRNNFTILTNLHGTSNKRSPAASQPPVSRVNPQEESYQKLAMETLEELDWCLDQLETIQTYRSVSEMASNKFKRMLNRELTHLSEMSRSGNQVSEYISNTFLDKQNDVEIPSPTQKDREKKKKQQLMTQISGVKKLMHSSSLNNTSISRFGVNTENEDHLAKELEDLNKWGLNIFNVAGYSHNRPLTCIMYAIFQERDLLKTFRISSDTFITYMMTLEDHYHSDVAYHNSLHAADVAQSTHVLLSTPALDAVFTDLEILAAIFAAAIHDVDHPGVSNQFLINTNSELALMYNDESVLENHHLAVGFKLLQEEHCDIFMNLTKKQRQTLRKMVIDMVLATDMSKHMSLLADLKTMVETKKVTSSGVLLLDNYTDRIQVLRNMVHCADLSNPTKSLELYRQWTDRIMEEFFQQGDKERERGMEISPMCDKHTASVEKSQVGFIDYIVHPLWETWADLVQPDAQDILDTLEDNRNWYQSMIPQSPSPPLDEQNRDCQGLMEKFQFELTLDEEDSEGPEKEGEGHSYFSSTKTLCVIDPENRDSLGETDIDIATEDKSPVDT

[3] = target: cGMP-specific 3',5'-cyclic phosphodiesterase (Homo sapiens, UniProt O76074); test: Inhibition of human PDE5A1 catalytic domain (535 to 860) expressed in Escherichia coli BL21 using [3H]-cAMP/[3H]-cGMP after 15 mins by liquid scintillation counting
[4] = target: High affinity cGMP-specific 3',5'-cyclic phosphodiesterase 9A (Homo sapiens, UniProt O76083); test: Inhibition of human PDE9A2 catalytic domain (181 to 506) expressed in Escherichia coli BL21 using [3H]-cAMP/[3H]-cGMP after 15 mins by liquid scintillation counting
Sequence of High affinity cGMP-specific 3',5'-cyclic phosphodiesterase 9A (O76083 whole entry, the tested form may be a part): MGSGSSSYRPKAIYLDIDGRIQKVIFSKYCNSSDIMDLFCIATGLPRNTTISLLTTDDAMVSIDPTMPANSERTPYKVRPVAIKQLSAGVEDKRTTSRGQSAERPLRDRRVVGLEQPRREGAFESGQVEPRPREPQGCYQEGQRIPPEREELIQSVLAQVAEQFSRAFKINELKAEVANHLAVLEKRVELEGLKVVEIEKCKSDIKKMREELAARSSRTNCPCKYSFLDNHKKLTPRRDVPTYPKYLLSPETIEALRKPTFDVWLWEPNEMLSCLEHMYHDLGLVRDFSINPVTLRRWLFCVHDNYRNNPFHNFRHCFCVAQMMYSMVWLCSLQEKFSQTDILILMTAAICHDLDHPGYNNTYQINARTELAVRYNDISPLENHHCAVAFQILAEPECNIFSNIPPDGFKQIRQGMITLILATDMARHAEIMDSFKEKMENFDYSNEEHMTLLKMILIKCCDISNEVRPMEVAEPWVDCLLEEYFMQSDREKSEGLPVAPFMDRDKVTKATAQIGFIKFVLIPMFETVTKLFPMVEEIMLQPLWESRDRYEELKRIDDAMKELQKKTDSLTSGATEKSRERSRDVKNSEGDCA

Sequence of 3',5'-cyclic-AMP phosphodiesterase 4D (Q08499 whole entry, the tested form may be a part): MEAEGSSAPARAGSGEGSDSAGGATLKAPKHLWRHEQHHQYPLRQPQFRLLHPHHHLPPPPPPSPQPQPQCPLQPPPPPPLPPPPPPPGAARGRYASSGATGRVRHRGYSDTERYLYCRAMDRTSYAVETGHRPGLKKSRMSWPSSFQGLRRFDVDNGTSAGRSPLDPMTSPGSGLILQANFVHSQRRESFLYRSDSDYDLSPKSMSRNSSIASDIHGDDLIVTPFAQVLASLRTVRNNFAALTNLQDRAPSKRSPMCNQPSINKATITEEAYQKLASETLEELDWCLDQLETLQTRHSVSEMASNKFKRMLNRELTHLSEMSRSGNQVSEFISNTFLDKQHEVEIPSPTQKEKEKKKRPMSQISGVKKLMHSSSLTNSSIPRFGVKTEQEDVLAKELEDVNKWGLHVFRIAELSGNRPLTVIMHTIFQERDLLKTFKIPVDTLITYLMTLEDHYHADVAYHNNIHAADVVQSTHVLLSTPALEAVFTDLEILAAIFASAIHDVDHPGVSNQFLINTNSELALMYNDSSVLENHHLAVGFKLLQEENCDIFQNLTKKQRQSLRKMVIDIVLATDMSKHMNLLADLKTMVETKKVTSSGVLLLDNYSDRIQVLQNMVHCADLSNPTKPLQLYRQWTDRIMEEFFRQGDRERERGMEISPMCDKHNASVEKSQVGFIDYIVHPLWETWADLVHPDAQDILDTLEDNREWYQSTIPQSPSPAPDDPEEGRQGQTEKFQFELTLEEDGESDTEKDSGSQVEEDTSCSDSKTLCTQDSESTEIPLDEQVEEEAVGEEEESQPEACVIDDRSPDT

IC50 [1] [µM] | IC50 [2] [µM] | IC50 [3] [µM] | IC50 [4] [µM] | Structure (SMILES)
26 | 18.1 | > 50 | > 100 | CC(C)=CCc1c(O)cc(-c2cc3ccc(O)cc3o2)cc1O [MORACIN C]
– | 4.5 | > 40 | > 100 | Oc1cc(O)cc(-c2cc3ccc(O)cc3o2)c1 [MORACIN M]
